The target in series [1] is T1, chicken hsp90 (Gallus gallus, UniProt P11501). The experiment in a line: Affinity chromatography on EGCG-conjugated Sepharose, hsp90 point and truncation mutants. Format: binding. Details: made in house; host or cells: coupled transcription/translation in rabbit reticulocyte lysate (TNT, Promega), 35S-labelled. The note with it: smallest truncation mutant N538, amino acids 538-728. The source says:
Murine AhR and ARNT cDNA (obtained from J. Whitlock and O. Hankinson, respectively) were inserted into pcDNA3 (Invitrogen, Carlsbad, Calif.). Chicken hsp90 constructs (FIG. 5), c90711hsp (wild-type), c90G94D (wild-type point mutant gly94→Asp (Grenert et al., J. Biol. Chem. 272:23843-23850 (1997), which is hereby incorporated by reference in its entirety), c90D92A (wild-type point mutant Asp92→Ala (Sullivan et al., J. Biol. Chem. 268:20373-20379 (1993), which is hereby incorporated by reference in its entirety), c90N221 (wild-type truncation mutant encoding a.a. 221-728 (Sullivan et al., J. Biol. Chem. 268:20373-20379 (1993), which is hereby incorporated by reference in its entirety)), c90N303 (a.a. 303-728) and c90N538 (a.a. 538-728) were kind gifts from Dr. D. Toft (Rochester, Minn.). The C-terminal truncation mutant c900507 (a.a. 1-221) was obtained from Dr. L. Neckers (Rockville, Md.) (Grenert et al., J. Biol. Chem. 272:23843-23850 (1997); Marcu et al., J. Biol. Chem. 275:37181-37186 (2000), which are hereby incorporated by reference in their entirety). Human p23 cDNA was excised from pQE80-p23 (obtained from W. Chan Stockton, Calif.) by sequential digests using the restriction enzymes Sad (3′-end) and BamHI (5′-end) and inserted into the similarly digested pET28a (Novagen, Madison, Wis.). […]

Series [2] addresses T1, chicken hsp90. The experiment in a line: Trypsin treatment of in vitro translated hsp90. Format: biochemical. Set-up: made in house; host or cells: TNT rabbit reticulocyte lysate, 35S-labelled. The settings on record: in absence of AhR or ARNT, trypsin 10 minutes at room temperature. Here is the method:
Chicken hsp90 was translated in vitro using the TNT RRL system as described supra in the presence of [^35S]Methionine, diluted, incubated with DMSO or EGCG, and treated with trypsin at indicated concentrations for 10 minutes at room temperature. All samples were separated by 10% SDS-PAGE, transferred to PVDF membrane, and visualized by phosphorImager. Results of the experiment are illustrated in FIG. 13. […] Therefore, the ability of EGCG to affect hsp90 conformation is not dependent on the presence of AhR or ARNT.

The subject of series [3] is TCDD-mediated CYP1A1 gene induction. Briefly: CYP1A1 gene induction in HepG2 cells. In kind it is cell-based, human.

This note sets out measurements from US20120165403A1, “METHODS OF INHIBITING THE ACTIVITY OF HSP90 AND/OR ARYL HYDROCARBON RECEPTOR” (UNIVERSITY OF ROCHESTER, priority 2004, published 2012).

Molecules are shown by their SMILES.

As for `O=C(O[C@@H]1Cc2c(O)cc(O)cc2O[C@@H]1c1cc(O)c(O)c(O)c1)c1cc(O)c(O)c(O)c1` [EGCG, epigallocatechin gallate], the “location of the binding site on hsp90” value on chicken hsp90 [1] was “binding of EGCG occurs within this region of the protein”. Moreover, the “effect on hsp90 conformation (trypsin treatment)” value on chicken hsp90 [2] is “altered conformation of hsp90”. Further, the “inhibition of TCDD-mediated CYP1A1 gene induction” value in series [3] was “inhibited TCDD-mediated CYP1A1 gene induction”.
